The source of these data is US20020115611A1, “Methods for screening GABA-modulatory compounds for specified pharmacological activities” (priority 1999, published 2002).

The term Ki denotes the equilibrium dissociation constant of an inhibitor or competing ligand from its target. Higher therefore signals weaker binding. In general, EC50 refers to the concentration that produces a half-maximal response.

For data set [1], the system named is rats. The data set is described as follows: spontaneous locomotor activity. Particulars: rat, IV; sedation as side effect (Tables V and IX); NS = no statistically significant effect over dose range. In kind it is in vivo. The text has this:
(§1) A statistically significant effect in the spatial water maze, step-down passive avoidance, spontaneous locomotor activity, Porsolt swim test, or the elevated plus maze models is defined as p<0.05 using a valid parametric statistical test. Likewise, no statistically significant effect is defined in these models as p>0.05 using a valid parametric statistical test. No statistically significant effect for either of the seizure threshold models is defined as a decrease of less than 25% in the seizure threshold in the presence of a seizure inducing drug or a result that is not significant at the p<0.05 level.
Spontaneous locomotor activity can be measured to determine sedative effects of compounds. Locomotor activity is measured in eight computerized Digiscan-16 Animal Activity Monitors (Omnitech Electronics, Columbus, Ohio) equipped with 48 infrared photocell emitters and detectors. Each box is constructed of Plexiglas sides and floor. Horizontal activity is detected by a set of horizontal sensors on the front to back walls and a second group of sensors on the side to side walls located 5 cm above the cage floor. Vertical activity is detected by a third set of sensors on the side to side walls located 13.5 cm above the cage floor. The rats are tested in the presence of white noise (62 dB) and red light (60 watt). […]

The test system of data set [2] is rats. The data set is described as follows: Porsolt forced swim test. In kind it is in vivo. Particulars: rat, administered IV; antidepressant effect.
Description: as §1
The effects measured in this model have been correlated to antidepressant efficacy for drugs. The paradigm of this model is that an effective antidepressant compound will cause a rat to make greater attempts to escape a water-filled cylinder than a rat given vehicle only.
Animals used in this study were non-naive male Sprague Dawley Rats (SASCO, St. Louis) weighing between 280-350 grams. The test apparatus consists of 6 clear Plexiglas cylinders 40 cm high×19 cm wide. Cylinders are filled to 18 cm with 25° C. water. Each rat is placed in a cylinder for a 15 minute training session. Following either subchronic or acute dosing of either vehicle (0.5% methylcellulose) of compound, animals are brought back 24 hours later for a 5 minute test session. These test session is videotaped for later scoring.
Subchronic dosing consists of administering drug three times in the 24-hour period between training and testing. The drug is administered 24 hrs., 5 hrs., and 1 hr. prior to the test session. Acute dosing consists of administering the drug once, 1 hour prior to the test session. Scoring is done using a time-sampling computer program written in Visual Basic and run in DOS. […] These sampling score are then converted into percentages of the test session.

Data set [3] has as its system rats. The data set is described as follows: step-down passive avoidance. Particulars: rat, IV; cognitive enhancement (Table X). In kind it is in vivo.
Description: as §1
In step-down passive avoidance a rat is placed on a platform located in the center of an electrified grid floor that is contained within a large (45 cm×45 cm×50 cm) white translucent Plexiglas® enclosure. The natural inclination of the rat is to step off the platform and investigate its surroundings. […] Each time the animal steps off the platform it receives a mild foot shock of 2 mAmps×6 sec. Following each shock the animal is removed from the box, placed in its cage for a one minute inter-trial interval, and then returned to the platform. The latency to step down on each trial, the number of trials taken to reach criterion during training and the retention latency are collected.
Testing is conducted approximately 24 hrs. after training. Drug-free animals are placed on the platform in the box in which they will have been trained and the latency to step down onto the grid floor is recorded for one trial as a measure of memory retention.

The target of data set [4] is GABAA receptors (Ro15-1788 / benzodiazepine site), rat cortex membranes. The data set is described as follows: Ro15-1788 competition binding assay, rat cortex membranes. Conditions: displacement of 3H Ro15-1788, rat cortex membranes. A general note: Displacement assays read how much labelled ligand stays bound in the presence of the test substance.
Description: Rat cortex membranes are prepared by homogenizing one or two previously frozen rat cortexes in 30 ml of 25 mM Tris Buffer, pH 7.4. The homogenate is centrifuged for 10 minutes at 500×g. The supernatant is then transferred to a clean centrifuge tube and the pellet discarded. The supernatant is spun for 20 minutes at 48,000×g. The supernatant from this spin is discarded and the pellet is resuspended in 30 ml of 25 mM Tris Buffer, pH 7.4 and centrifuged for an additional 10 minutes at 48,000×g. The supernatant from the final spin is discarded and the membrane pellet is resuspended in 100 mL Tris buffer per gram of cortex used.
The cortex membrane preparation is used to perform either percent inhibition or competition binding assays. In order to determine percent inhibition 300 μl of resuspended membranes are mixed with 200 μl ^3H labeled Ro15-1788 (final concentration 2.5 nM) and incubated for 1 hour on ice in the presence of 2 μl test compound in DMSO (final concentration 4 μM). Membranes are harvested onto untreated filtermats. The filtermats are dried and the ^3H Ro15-1788 signal is counted in a scintillation counter. Nonspecific binding is determined by displacement of ^3H Ro15-1788 with 10 μM Diazepam (RBI) or any other compound known to bind tightly at the benzodiazepine site.
Ki values are calculated according to the Cheng-Prussof equation.
Data set [5] relates to rats. The data set is described as follows: bicuculline seizure threshold test. Particulars: rat; proconvulsant activity; NS = no statistically significant effect versus vehicle. In kind it is in vivo.
Description: as §1
This test provides a measure of whether the test compound is proconvulsant by measuring whether the test compound produces any change in the dose of the seizure inducing drug, bicuculline, needed to elicit seizures in rats. […]
Adult male Sprague-Dawley rats (175-300 g) are weighed and placed in a rat restrainer. […] Patency of catheter placement is tested by backflow of venous blood and ready infusion of less than 2 ml of saline solution. […]
Test compound is infused 5 minutes prior to the start of bicuculline infusion. […] The time elapsed from the start of bicuculline infusion to first myoclonic jerk (first head/neck twitch), the initiation of full myoclonus (writhing), and final forelimb extension is all recorded using a digital stopwatch. […]

Data set [6] addresses α1β2γ2 GABAA subtype receptor (Homo sapiens, UniProt P14867+P18507). The data set is described as follows: cell-based. The text has this:
(§2) The in vitro efficacy and EC50 value of the test compound may be determined by measuring the chloride flux at the surface of a cell expressing the α,β, and γ subunits of the GABAA receptor in response to GABA by the two electrode voltage-clamp technique. While a variety of cells are suitable for use herein, the preferred cells used in this technique are Xenopus laevis oocytes that have been injected with non-polyadenylated CRNA coding for human derived α, βand γ GABAA subunits. The preferred form of the γ subunit is the normally expressed long form although an alternatively spliced form may be used.
(§3) Assays are carried out as described previously in White and Gurley, 1995 and White, et al., 1995. Xenopus laevis oocytes are enzymatically isolated and injected with non-polyadenylated cRNA for human derived α, β and γ GABAA subunits, respectively. In more preferred embodiments cRNA for the α1β2γ2, α2β3γ2, α3β3γ2, and α5β3γ2 subunit combinations are injected. Only one of these subunit combinations is injected per cell. For each subunit combination, sufficient message is injected to result in current amplitudes of >10 nA when 1 μM GABA is applied. Electrophysiological recordings are carried out using the two electrode voltage-clamp technique at a membrane holding potential of −70 mV.
(§4) Compounds are evaluated against a GABA concentration that evokes <10% (EC10) of the maximal evocable GABA current. Each oocyte is exposed to increasing concentrations of compound in order to evaluate a concentration/effect relationship.
(§5) Specificity of a compound for the Ro15-1788 site is determined following completion of the concentration/effect curve. After washing the oocyte sufficiently to remove previously applied compound, the oocyte is exposed to GABA and 1 μM Ro15-1788, followed by exposure to GABA, 1 μM Ro15-1788, and compound. Percent change due to addition of compound is calculated as described above. Any percent change observed in the presence of Ro15-1788 is subtracted from the percent changes in current amplitude observed in the absence of 1 μM Ro15-1788. These net values are used for the calculation of average activity and EC50 values.
(§6) To evaluate average activity and EC50 values, the concentration/effect data are averaged across cells and fit to the logistic equation. Average values are reported as mean±standard error.

In data set [7] the target is α3β3γ2 GABAA subtype receptor (Homo sapiens, UniProt P18507+P34903). The data set is described as follows: cell-based. Particulars: human subunits, GABA at EC10.
Description: as §2, §3, §4, §5, §6

Data set [8] addresses α2β3γ2 GABAA subtype receptor (Homo sapiens, UniProt P18507+P47869). The data set is described as follows: cell-based. Particulars: for EC50: human subunits, GABA at EC10.
Description: as §2, §3, §4, §5, §6

In data set [9] the target is α5β3γ2 GABAA subtype receptor (Homo sapiens, UniProt P18507+P31644). The data set is described as follows: cell-based. Particulars: human subunits, GABA at EC10.
Description: as §2, §3, §4, §5, §6

[10] abbreviates: oocyte electrophysiology EC50 α1β2γ2, Xenopus laevis oocytes, human subunits, GABA at EC10.
Setting [11] is: oocyte electrophysiology EC50 α3β3γ2, Xenopus laevis oocytes.
Where [12] appears, read: oocyte electrophysiology EC50 α2β3γ2, Xenopus laevis oocytes.
The mark [13] stands for this setting: oocyte electrophysiology EC50 α5β3γ2, Xenopus laevis oocytes.

Like-named read-outs stand apart in the source and are kept apart here.

Sequence of α2β3γ2 GABAA subtype receptor (P47869 29-451): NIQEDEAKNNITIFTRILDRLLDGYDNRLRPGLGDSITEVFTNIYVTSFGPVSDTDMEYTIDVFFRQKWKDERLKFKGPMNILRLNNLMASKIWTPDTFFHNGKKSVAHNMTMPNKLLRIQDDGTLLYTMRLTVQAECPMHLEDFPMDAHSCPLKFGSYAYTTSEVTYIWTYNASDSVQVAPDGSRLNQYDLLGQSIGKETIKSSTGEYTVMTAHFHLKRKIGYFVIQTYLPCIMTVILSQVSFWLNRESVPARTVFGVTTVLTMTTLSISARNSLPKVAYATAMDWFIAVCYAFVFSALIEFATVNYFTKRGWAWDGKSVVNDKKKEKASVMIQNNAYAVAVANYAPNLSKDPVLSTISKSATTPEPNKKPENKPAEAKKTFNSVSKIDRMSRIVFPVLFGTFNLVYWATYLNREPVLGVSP
Sequence of α2β3γ2 GABAA subtype receptor (P28472 26-473 partner): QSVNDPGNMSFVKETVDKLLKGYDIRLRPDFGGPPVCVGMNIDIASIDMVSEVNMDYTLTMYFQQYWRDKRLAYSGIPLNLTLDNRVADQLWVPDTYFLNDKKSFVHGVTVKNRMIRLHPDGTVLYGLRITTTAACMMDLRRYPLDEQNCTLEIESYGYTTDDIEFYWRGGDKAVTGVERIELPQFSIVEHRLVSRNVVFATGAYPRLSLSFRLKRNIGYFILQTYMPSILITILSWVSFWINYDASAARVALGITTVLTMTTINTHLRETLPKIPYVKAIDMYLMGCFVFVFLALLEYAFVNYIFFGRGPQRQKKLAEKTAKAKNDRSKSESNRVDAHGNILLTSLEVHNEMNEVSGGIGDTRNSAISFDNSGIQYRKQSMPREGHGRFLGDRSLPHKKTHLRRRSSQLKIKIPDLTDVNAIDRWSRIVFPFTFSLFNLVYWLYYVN
Sequence of α2β3γ2 GABAA subtype receptor (P18507 40-475): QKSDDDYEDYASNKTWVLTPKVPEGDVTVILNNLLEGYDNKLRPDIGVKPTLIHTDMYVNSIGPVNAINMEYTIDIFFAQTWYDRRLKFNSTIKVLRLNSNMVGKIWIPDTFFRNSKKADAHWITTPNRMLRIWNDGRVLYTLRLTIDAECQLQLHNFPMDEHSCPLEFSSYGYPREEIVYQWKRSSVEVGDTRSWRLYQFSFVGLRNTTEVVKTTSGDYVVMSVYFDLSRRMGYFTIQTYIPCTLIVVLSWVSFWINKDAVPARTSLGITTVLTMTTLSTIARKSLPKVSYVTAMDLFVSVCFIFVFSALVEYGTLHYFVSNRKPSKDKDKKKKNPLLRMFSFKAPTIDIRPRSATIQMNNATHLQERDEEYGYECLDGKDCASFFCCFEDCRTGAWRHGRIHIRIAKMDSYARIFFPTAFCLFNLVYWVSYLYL
Sequence of α3β3γ2 GABAA subtype receptor (P34903 29-492): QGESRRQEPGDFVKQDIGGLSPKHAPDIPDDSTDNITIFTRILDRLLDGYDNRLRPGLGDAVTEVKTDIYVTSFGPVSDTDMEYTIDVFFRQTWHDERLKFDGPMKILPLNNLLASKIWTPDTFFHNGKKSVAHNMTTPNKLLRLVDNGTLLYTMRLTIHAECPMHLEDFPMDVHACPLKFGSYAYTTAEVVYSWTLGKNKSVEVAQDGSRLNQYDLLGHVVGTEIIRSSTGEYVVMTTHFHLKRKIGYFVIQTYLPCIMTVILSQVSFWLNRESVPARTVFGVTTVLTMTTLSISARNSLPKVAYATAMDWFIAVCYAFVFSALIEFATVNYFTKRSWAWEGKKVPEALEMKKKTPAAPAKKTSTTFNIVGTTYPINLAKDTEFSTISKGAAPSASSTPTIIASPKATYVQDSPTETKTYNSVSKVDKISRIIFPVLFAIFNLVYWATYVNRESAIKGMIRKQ
Sequence of α3β3γ2 GABAA subtype receptor (P28472 26-473 partner): as the sequence (P28472 26-473 partner) above
Sequence of α3β3γ2 GABAA subtype receptor (P18507 40-475): as the sequence (P18507 40-475) above
Sequence of α5β3γ2 GABAA subtype receptor (P31644 32-462): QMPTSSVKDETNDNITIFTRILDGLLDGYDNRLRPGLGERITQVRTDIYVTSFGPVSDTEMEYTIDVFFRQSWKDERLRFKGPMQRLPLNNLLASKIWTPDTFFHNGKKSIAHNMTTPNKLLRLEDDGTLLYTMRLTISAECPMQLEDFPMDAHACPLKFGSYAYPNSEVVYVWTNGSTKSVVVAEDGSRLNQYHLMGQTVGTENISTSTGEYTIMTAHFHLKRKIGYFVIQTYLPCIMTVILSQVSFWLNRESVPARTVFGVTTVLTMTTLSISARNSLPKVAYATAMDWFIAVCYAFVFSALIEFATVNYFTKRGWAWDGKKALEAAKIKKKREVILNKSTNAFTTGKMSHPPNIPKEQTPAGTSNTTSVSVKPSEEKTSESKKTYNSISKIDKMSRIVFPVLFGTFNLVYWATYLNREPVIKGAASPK
Sequence of α5β3γ2 GABAA subtype receptor (P28472 26-473 partner): as the sequence (P28472 26-473 partner) above
Sequence of α5β3γ2 GABAA subtype receptor (P18507 40-475): as the sequence (P18507 40-475) above
Sequence of α1β2γ2 GABAA subtype receptor (P14867 28-456): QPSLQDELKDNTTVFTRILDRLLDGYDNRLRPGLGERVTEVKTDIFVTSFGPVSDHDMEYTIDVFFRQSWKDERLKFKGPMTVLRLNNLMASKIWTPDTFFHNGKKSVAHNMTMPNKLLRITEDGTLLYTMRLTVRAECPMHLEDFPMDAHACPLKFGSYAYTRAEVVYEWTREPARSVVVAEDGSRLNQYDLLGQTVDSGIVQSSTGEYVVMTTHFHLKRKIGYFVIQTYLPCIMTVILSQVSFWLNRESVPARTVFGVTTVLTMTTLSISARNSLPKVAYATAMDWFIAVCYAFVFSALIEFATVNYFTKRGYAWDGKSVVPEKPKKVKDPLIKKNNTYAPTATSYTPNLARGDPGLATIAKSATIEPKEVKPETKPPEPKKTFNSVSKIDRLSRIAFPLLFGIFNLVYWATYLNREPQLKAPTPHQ
Sequence of α1β2γ2 GABAA subtype receptor (P47870 25-512 partner limits assumed): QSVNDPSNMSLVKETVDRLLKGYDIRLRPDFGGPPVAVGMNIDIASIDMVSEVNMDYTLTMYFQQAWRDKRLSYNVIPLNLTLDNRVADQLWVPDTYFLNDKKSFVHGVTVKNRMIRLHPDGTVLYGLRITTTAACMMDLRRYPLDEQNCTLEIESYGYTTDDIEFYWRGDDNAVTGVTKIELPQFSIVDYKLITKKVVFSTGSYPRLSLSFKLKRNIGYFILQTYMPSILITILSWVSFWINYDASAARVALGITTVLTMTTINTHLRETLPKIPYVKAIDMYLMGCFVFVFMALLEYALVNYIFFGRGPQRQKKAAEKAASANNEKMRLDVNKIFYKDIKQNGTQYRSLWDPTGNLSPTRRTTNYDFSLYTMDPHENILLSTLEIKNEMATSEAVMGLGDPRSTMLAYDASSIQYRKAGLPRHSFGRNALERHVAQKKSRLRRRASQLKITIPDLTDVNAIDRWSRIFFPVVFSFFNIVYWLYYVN
Sequence of α1β2γ2 GABAA subtype receptor (P18507 40-475): as the sequence (P18507 40-475) above

Take `CC(C)(C)OC(=O)c1ncn2c1C1CCCN1C(=O)c1c(Br)cccc1-2` (centres unmarked) [Ro16-6028, reference compound]: the “spontaneous locomotor activity, minimal efficacious dose” value in [1] is reported as 0.06 mg/kg. Further, the “Porsolt swim test, minimal efficacious dose” value in [2] amounted to 1 mg/kg.
Regarding `O=C1C2C=Nc3ccccc3C2=NN1c1ccccc1` (centres unmarked) [CGS 8216, reference compound], the “cognitive model: step-down passive avoidance, minimal efficacious dose” value in data set [3] is 0.06 mg/kg. The molecule also displayed a Ki in data set [4] of 0.2 nM. Also, the “bicuculline seizure threshold, mean percent decrease in seizure threshold over the dose range studied” value in data set [5] came out at 50%. Also, the “oocyte electrophysiology maximum potentiation α1β2γ2” value in [6] (Xenopus laevis oocytes, human subunits, GABA at EC10, negative = inverse agonism) is on record as −26%. Moreover, the EC50 in data set [6] (setting [10]) is 0.7 nM; in data set [7] (setting [11]), 2 nM; in data set [8] (setting [12]) it was 2 nM; in [9] (setting [13]) it was 1 nM. Besides, in data set [9] (Xenopus laevis oocytes, negative = inverse agonism), the “oocyte electrophysiology maximum potentiation α5β3γ2” value was −39%.
For `CCOc1ccc(NC(=O)c2c[nH]c3c2C(=O)CCC3)cc1` [compound 3], the “spontaneous locomotor activity, minimal efficacious dose” value in [1] worked out at 4 mg/kg. Further, the “Porsolt swim test, minimal efficacious dose” value in data set [2] is reported as 20 mg/kg. Further, the EC50 in [6] (Xenopus laevis oocytes, human subunits, GABA at EC10, read-out: oocyte electrophysiology EC50 α1β2γ2) is 107 nM; in data set [6] (setting [10]), 33 nM; in [7] (Xenopus laevis oocytes, read-out: oocyte electrophysiology EC50 α3β3γ2) it was 133 nM; in [7] (setting [11]), 23 nM; in data set [8] (Xenopus laevis oocytes, read-out: oocyte electrophysiology EC50 α2β3γ2), 108 nM; in [8] (setting [12]), 12 nM. In addition, the EC50 in data set [9] (Xenopus laevis oocytes, read-out: oocyte electrophysiology EC50 α5β3γ2) stood at 186 nM; in data set [9] (setting [13]) it was 36 nM. Also, the Emax worked out at 26% in data set [6] (read-out: oocyte electrophysiology maximum potentiation α1β2γ2) and 52% in data set [8] (read-out: oocyte electrophysiology maximum potentiation α2β3γ2).
